In patent US20230012560A1, “HEPATITIS B ANTIVIRAL AGENTS” (TAIGEN BIOTECHNOLOGY CO., LTD., priority 2019, published 2023):

System: HBV (HepAD38 cells)
Assay: Real-Time PCR Assay (extracellular HBV DNA from HepAD38 culture supernatants)
Format: cell-based
Details: Hepatitis B virus, 120 h, compound treatment for 5 days without tetracycline, extracellular DNA in culture supernatant quantified by real-time PCR, read-out: EC50 (50% effective concentration)
Description: HepAD38 cells were seeded and cultured on 96-well plates. After incubation for 2 days, cells were fed with compound-containing media without tetracycline. After compound treatment for 5 days, culture supernatants were collected. Extracellular DNA was then extracted using LabTurbo DNA mini kit, and quantified by real-time PCR.
Real-time PCR was performed using an ABI QuantStudio 3 system in a 96-well optical plate format. The PCR mixture containing forward primer (5′-[…]-3′) (SEQ ID NO.1), reverse primer (5′-GGTGAGTGATTGGAGGTTG-3′) (SEQ ID NO.2) and Luna Universal qPCR Master Mix in a final volume of 24 μl was incubated at 95° C. for 10 min followed by 45 cycle of incubation at 95° C. for 10 s and 60° C. for 10 s. Regression analysis was performed using GraphPad Prism 5 to calculate the 50% effective concentration (EC50) values.

Row | SMILES | EC50 [nM]
1 | CNC(=O)C(=O)N1CCC2CC2(NS(=O)(=O)c2cn(C)c(C(=O)Nc3cc(F)c(F)c(F)c3)c2F)C1 (stereo not shown) [Compound 59] | < 100
2 | CNS(=O)(=O)N[C@@H]1CCN(S(=O)(=O)c2cn(C)c(C(=O)Nc3cc(F)c(F)c(F)c3)c2F)C1 [Compound 60] | 300 to 1000
3 | CCNC(=O)C(=O)N[C@@H]1CCN(S(=O)(=O)c2cn(C)c(C(=O)Nc3cc(F)c(F)c(F)c3)c2F)C1 [Compound 61] | 300 to 1000
4 | CNS(=O)(=O)NC1CCN(S(=O)(=O)c2cn(C)c(C(=O)Nc3cc(F)c(F)c(F)c3)c2F)CC1 [Compound 62] | 300 to 1000
5 | CCNC(=O)C(=O)NC1CCN(S(=O)(=O)c2cn(C)c(C(=O)Nc3cc(F)c(F)c(F)c3)c2F)CC1 [Compound 63] | 100 to 300
6 | CCNC(=O)C(=O)N1CCN(S(=O)(=O)c2cn(C)c(C(=O)Nc3cc(F)c(F)c(F)c3)c2F)CC1 [Compound 65] | 300 to 1000
7 | CNS(=O)(=O)N1CCN(S(=O)(=O)c2cn(C)c(C(=O)Nc3cc(F)c(F)c(F)c3)c2F)CC1 [Compound 66] | 100 to 300
8 | CCS(=O)(=O)N1CC2CC1CN2S(=O)(=O)c1cn(C)c(C(=O)Nc2ccc(F)c(F)c2)c1F (stereo not shown) [Compound 67] | 300 to 1000
9 | Cn1cc(S(=O)(=O)NC2CCN(C(=O)C(N)=O)CC2)c(F)c1C(=O)Nc1cc(F)c(F)c(F)c1 [Compound 68] | < 100
10 | CCNC(=O)C(=O)N1CCC(NS(=O)(=O)c2cn(C)c(C(=O)Nc3cc(F)c(F)c(F)c3)c2F)CC1 [Compound 69] | < 100
11 | CCNC(=O)C(=O)N1CCC(NS(=O)(=O)c2cn(C)c(C(=O)Nc3ccc(F)c(C)c3)c2F)CC1 [Compound 71] | < 100
12 | CCNC(=O)C(=O)N1CCC(NS(=O)(=O)c2cn(C)c(C(=O)Nc3cccc(Cl)c3)c2F)CC1 [Compound 72] | < 100
13 | CCNC(=O)C(=O)N1CCC(NS(=O)(=O)c2cn(C)c(C(=O)Nc3cccc(C(F)(F)F)c3)c2F)CC1 [Compound 73] | < 100
14 | CCNC(=O)C(=O)N1CCC(NS(=O)(=O)c2cn(C)c(C(=O)Nc3ccc(F)c(Cl)c3F)c2F)CC1 [Compound 74] | < 100
15 | CC[C@@H](C)NC(=O)C(=O)N1CCC(NS(=O)(=O)c2cn(C)c(C(=O)Nc3cc(F)c(F)c(F)c3)c2F)CC1 [Compound 75] | < 100
16 | CCNC(=O)C(=O)N1CCC(NS(=O)(=O)c2cn(C)c(C(=O)Nc3cc(F)c(F)c(F)c3)c2Cl)CC1 [Compound 76] | < 100
17 | O=C(NC1CC1)C(=O)N1CCC(NS(=O)(=O)c2c(F)c(C(=O)Nc3cc(F)c(F)c(F)c3)n3c2CCC3)CC1 [Compound 77] | < 100
18 | CCNC(=O)C(=O)N1CCC(NS(=O)(=O)c2c(Cl)c(C(=O)Nc3cc(F)c(F)c(F)c3)n3c2CCC3)CC1 [Compound 78] | < 100
19 | CCNC(=O)C(=O)N1CCC(NS(=O)(=O)c2c(C)c(C(=O)Nc3cc(F)c(F)c(F)c3)n3c2CCC3)CC1 [Compound 79] | 300 to 1000

Row | SMILES | EC50 [nM]
20 | CCNC(=O)C(=O)N1CCC(NS(=O)(=O)c2c(F)c(C(=O)Nc3ccc(F)c(F)c3)n(C)c2C)CC1 [Compound 80] | < 100
21 | CCNC(=O)C(=O)N1CCC(NS(=O)(=O)c2c(F)c(C(=O)Nc3cc(F)c(F)c(F)c3)n(C)c2Br)CC1 [Compound 81] | < 100
22 | CCNC(=O)C(=O)N1CCC(C)(NS(=O)(=O)c2cn(C)c(C(=O)Nc3cc(F)c(F)c(F)c3)c2F)CC1 [Compound 82] | 100 to 300
23 | CCNC(=O)C(=O)N1CCC(NS(=O)(=O)c2cn(C)c(C(=O)Nc3ccc(F)c(F)c3)c2F)C(C)C1 (stereo not shown) [Compound 83] | < 100
24 | CCNC(=O)C(=O)N1CCC(NS(=O)(=O)c2cn(C)c(C(=O)Nc3cc(F)c(F)c(F)c3)c2Cl)CC1C (stereo not shown) [Compound 84] | < 100
25 | CCNC(=O)C(=O)N1CCC2(NS(=O)(=O)c3cn(C)c(C(=O)Nc4cc(F)c(F)c(F)c4)c3F)CC2C1 (stereo not shown) [Compound 85] | < 100
26 | CCNC(=O)C(=O)N1CCC(NS(=O)(=O)c2cn(C)c(C(=O)Nc3cc(F)c(F)c(F)c3)c2F)C(C)(C)C1 (stereo not shown) [Compound 86] | < 100
27 | CCNC(=O)C(=O)N1CCC(NS(=O)(=O)c2cn(C)c(C(=O)Nc3cc(F)c(F)c(F)c3)c2Cl)C2(CC2)C1 (stereo not shown) [Compound 87] | < 100
28 | CCNC(=O)C(=O)N1CCC(NS(=O)(=O)c2cn(C)c(C(=O)Nc3cc(F)c(F)c(F)c3)c2F)CC12CC2 (stereo not shown) [Compound 88] | < 100
29 | CCNC(=O)C(=O)N1CCC(NS(=O)(=O)c2cn(/C=C/F)c(C(=O)Nc3cc(F)cc(Cl)c3)c2F)CC1 [Compound 90] | < 100
30 | Cn1cc(S(=O)(=O)NC2CCN(C(=O)C(=O)NC3COC3)CC2(F)F)c(F)c1C(=O)Nc1ccc(F)c(F)c1 (stereo not shown) [Compound 92] | < 100
31 | Cn1cc(S(=O)(=O)NC2CCN(C(=O)C(=O)NC3(C)CC3)CC2(F)F)c(Cl)c1C(=O)Nc1cc(F)c(F)c(F)c1 (stereo not shown) [Compound 93] | < 100
32 | CCNC(=O)C(=O)N1CC[C@@H](NS(=O)(=O)c2cn(C)c(C(=O)Nc3ccc(F)c(F)c3)c2F)C(F)(F)C1 [Compound 94] | < 100
33 | CCNC(=O)C(=O)N1CC[C@@H](NS(=O)(=O)c2cn(C)c(C(=O)Nc3ccc(F)c(F)c3)c2F)[C@@H](F)C1 [Compound 96] | < 100
34 | CC(C)NC(=O)C(=O)N1CC[C@@H](NS(=O)(=O)c2cn(C)c(C(=O)Nc3cc(F)c(F)c(F)c3)c2F)[C@@H](C)C1 [Compound 97] | < 100
35 | CCCNC(=O)C(=O)N1CC[C@@H](NS(=O)(=O)c2cn(C)c(C(=O)Nc3cc(F)c(F)c(F)c3)c2F)C(F)(F)C1 [Compound 98] | < 100
36 | CCNC(=O)C(=O)N1CC[C@@H](NS(=O)(=O)c2cn(C)c(C(=O)Nc3ccc(F)c(F)c3)c2F)C(C)(C)C1 [Compound 99] | < 100
37 | CNC(=O)C(=O)N1C[C@@H]2[C@H](C1)[C@@H]2NS(=O)(=O)c1cn(C)c(C(=O)Nc2cc(F)c(F)c(F)c2)c1F [Compound 100] | < 100
